Data taken from paper PMC8606745 (Frontiers in Microbiology, 2021).
“And” between values parts separate entries of the source, which are not always exact repeats. Equal values may be shown once. Read-outs that look alike come from different tables or passages of the source. Square brackets hold non-standard residues; d marks the D form. Peptide text beside a SMILES is read from it. * marks the point of attachment. Hexanoyl = CCCCCC(=O)*

What was measured:
[1] = test system: X. fastidiosa subsp. fastidiosa IVIA 5387.2; type: cell-based, Xylella fastidiosa
[2] = test system: X. fastidiosa subsp. fastidiosa IVIA 5387.2
[3] = test system: X. fastidiosa subsp. fastidiosa IVIA 5387.2; settings: for Bimax (maximum biofilm inhibition): 50 µM
[4] = test system: X. fastidiosa subsp. fastidiosa IVIA 5387.2; type: cell-based, Xylella fastidiosa; remark: listed apart in the source
[5] = test system: X. fastidiosa subsp. fastidiosa Temecula (ATCC 700964); type: cell-based, Xylella fastidiosa; settings: 50 μM; strain Temecula; OD595 crystal violet, 28°C, 5 days; three replicates of 10 wells ± confidence interval; listed as NAC
[6] = test system: X. fastidiosa subsp. fastidiosa IVIA 5770; type: cell-based, Xylella fastidiosa; settings: 50 μM; strain IVIA 5770; OD595 crystal violet, 28°C, 5 days; three replicates of 10 wells ± confidence interval; listed as NAC
[7] = test system: X. fastidiosa subsp. pauca DD1; type: cell-based, Xylella fastidiosa; settings: 50 μM; strain DD1; OD595 crystal violet, 28°C, 5 days; three replicates of 10 wells ± confidence interval; listed as NAC
[8] = test system: X. fastidiosa subsp. multiplex CFBP 8173; type: cell-based, Xylella fastidiosa; settings: 50 μM; strain CFBP 8173; OD595 crystal violet, 28°C, 5 days; three replicates of 10 wells ± confidence interval; listed as NAC
[9] = test system: X. fastidiosa subsp. multiplex IVIA 5901.2; type: cell-based, Xylella fastidiosa; settings: 50 μM; strain IVIA 5901.2; OD595 crystal violet, 28°C, 5 days; three replicates of 10 wells ± confidence interval; listed as NAC
Gram-negative bacteria [10] = settings: cited from earlier work
Gram-negative bacteria [11] = settings: cited from earlier work; remark: listed apart in the source
[12] = test system: several X. fastidiosa strains; settings: 12.5 μM; cited from earlier work

CC[C@H](C)[C@H](N)C(=O)N[C@@H](CC(C)C)C(=O)N1CCC[C@H]1C(=O)N[C@H](Cc1ccccc1)C(=O)N[C@@H](CCCCN)C(=O)N[C@H](Cc1ccccc1)C(=O)N1CCC[C@H]1C(=O)N[C@H](Cc1ccccc1)C(=O)N[C@H](Cc1ccccc1)C(=O)N1CCC[C@H]1C(=O)N[C@H](Cc1ccccc1)C(=O)N[C@@H](CCCNC(=N)N)C(=O)N[C@@H](CCCNC(=N)N)C(N)=O [BP525] (H-ILP[dF]K[dF]P[dF][dF]P[dF]RR-NH2)
Biofilm formation Level (antibiofilm activity) [1]: High (key: High: high antibiofilm activity (ratio of biofilm formation from 0.01 to 0.2); Moderate: moderate activity (ratio from 0.29 to 0.47); Low: low activity (ratio from 0.72 to 0.77))
Biofilm formation Ratio (treatment/NTC) [1]: 0.18 ± 0.01
Planktonic cells Ratio (treatment/NTC) [1]: 1.83 ± 0.12
Bactericidal activity: Reduction in viability (Log N0/N) [2]: 0.74 ± 0.06 Log N0/N
ED50 (median effective dose, biofilm inhibition) [3]: 4.4 ± 1.3 µM
Bimax (maximum biofilm inhibition) [3]: 85.8%

CCCCCC(=O)N[C@H](C(=O)N[C@@H](CC(C)C)C(=O)N1CCC[C@H]1C(=O)N[C@H](Cc1ccccc1)C(=O)N[C@@H](CCCCN)C(=O)N[C@H](Cc1ccccc1)C(=O)N1CCC[C@H]1C(=O)N[C@H](Cc1ccccc1)C(=O)N[C@H](Cc1ccccc1)C(=O)N1CCC[C@H]1C(=O)N[C@H](Cc1ccccc1)C(=O)N[C@@H](CCCNC(=N)N)C(=O)N[C@@H](CCCNC(=N)N)C(N)=O)[C@@H](C)CC [BP527] (Hexanoyl-ILP[dF]K[dF]P[dF][dF]P[dF]RR-NH2)
Biofilm formation Level (antibiofilm activity) ([1]; 50 µM): High (key: High: high antibiofilm activity (ratio of biofilm formation from 0.01 to 0.2); Moderate: moderate activity (ratio from 0.29 to 0.47); Low: low activity (ratio from 0.72 to 0.77))
Biofilm formation Ratio (treatment/NTC) ([1]; 50 µM): 0.18 ± 0.02
Planktonic cells Ratio (treatment/NTC) ([1]; 50 µM): 0.58 ± 0.12
attached biofilm cells [4]: 12.5%
biofilm detached cells [4]: 45.7%
planktonic cells [4]: 41.7%
Bactericidal activity: Reduction in viability (Log N0/N) ([2]; 50 µM): 0.49 ± 0.04 Log N0/N
Hemolysis (horse erythrocytes; 150 µM): 62.2 ± 4.4%
Hemolysis (horse erythrocytes; 250 µM): 73.6 ± 1.1%
Hemolysis (horse erythrocytes; 375 µM): 100.0 ± 2.6%

CC(=O)N[C@@H](CS)C(=O)O [N-Acetyl-L-cysteine, N-acetyl-L-cysteine]
Biofilm formation Level (antibiofilm activity) ([1]; 50 µM): Low (low activity (ratio from 0.72 to 0.77))
Planktonic cells Ratio (treatment/NTC) ([1]; 50 µM, OD600 treated / non-treated, PD3, 96-well, 28°C, 5 days, 120 rpm, three replicates of 10 wells ± confidence interval (α=0.05)): 1.71 ± 0.03
Biofilm formation Ratio (treatment/NTC) ([1]; 50 µM, crystal violet OD595 treated / non-treated, PD3, 96-well, 28°C, 5 days, 120 rpm, three replicates of 10 wells ± confidence interval (α=0.05)): 0.72 ± 0.01
Biofilm formation (Ratio T/NTC) ([1]; 50 μM, strain IVIA 5387.2, OD595 crystal violet, 28°C, 5 days, three replicates of 10 wells ± confidence interval, listed as NAC): 0.72 and 0.72 ± 0.01 b
Biofilm formation (Ratio T/NTC) [5]: 0.94 ± 0.02 c
Biofilm formation (Ratio T/NTC) [6]: 0.97
Biofilm formation (Ratio T/NTC) [7]: 0.42 and 0.42 ± 0.05 a
Biofilm formation (Ratio T/NTC) [8]: 0.99
Biofilm formation (Ratio T/NTC) [9]: 1.00 ± 0.04 days
Bactericidal activity: Level ([2]; 50 µM, class by Duncan's test groups): Very low (very low activity with less than 0.3 log)
Bactericidal activity: Reduction in viability (Log N0/N) ([2]; 50 µM, contact test 3 h at room temperature in SCP buffer, v-qPCR with PMAxx, N0 = 10^7 CFU/mL non-treated control, mean of three replicates ± confidence interval (α=0.05)): 0.12 ± 0.01 Log N0/N
Hemolysis (horse erythrocytes; 150 µM): 0.5 ± 0.9%
Hemolysis (horse erythrocytes; 250 µM): 0.7 ± 1.1%
Hemolysis (horse erythrocytes; 375 µM): 1 ± 2%

CC[C@H](C)[C@H](NC(=O)[C@H](CCCNC(=N)N)NC(=O)[C@H](Cc1c[nH]c2ccccc12)NC(=O)[C@H](CCC(N)=O)NC(=O)[C@@H](N)C(C)C)C(=O)N[C@@H](CCCNC(=N)N)C(=O)N[C@H](C(=O)N[C@@H](CCCNC(=N)N)C(=O)N[C@H](C(=O)N[C@H](C(=O)N[C@@H](CCCCN)C(=O)N[C@@H](CCCCN)C(N)=O)[C@@H](C)CC)C(C)C)C(C)C [Peptide 1026] (H-VQWRIRVRVIKK-NH2)
Biofilm formation Level (antibiofilm activity) [1]: High (key: High: high antibiofilm activity (ratio of biofilm formation from 0.01 to 0.2); Moderate: moderate activity (ratio from 0.29 to 0.47); Low: low activity (ratio from 0.72 to 0.77))
Planktonic cells Ratio (treatment/NTC) [1]: 2.10 ± 0.05
attached biofilm cells [4]: 0.7%
biofilm detached cells [4]: 19.8%
planktonic cells [4]: 79.5%
Bactericidal activity: Reduction in viability (Log N0/N) [2]: 1.03 ± 0.07 Log N0/N

CC[C@H](C)[C@H](NC(=O)[C@H](CCCNC(=N)N)NC(=O)[C@H](Cc1ccccc1)NC(=O)[C@H](CCCNC(=N)N)NC(=O)[C@@H](N)CCCCN)C(=O)N[C@@H](CCCNC(=N)N)C(=O)N[C@H](C(=O)N[C@@H](CCCNC(=N)N)C(=O)N[C@H](C(N)=O)C(C)C)C(C)C [Peptide 1037] (H-KRFRIRVRV-NH2)
Biofilm formation Level (antibiofilm activity) [1]: High (key: High: high antibiofilm activity (ratio of biofilm formation from 0.01 to 0.2); Moderate: moderate activity (ratio from 0.29 to 0.47); Low: low activity (ratio from 0.72 to 0.77))
Biofilm formation Ratio (treatment/NTC) [1]: 0.15 ± 0.00
Planktonic cells Ratio (treatment/NTC) [1]: 1.67 ± 0.05
Bactericidal activity: Reduction in viability (Log N0/N) [2]: 0.84 ± 0.09 Log N0/N
ED50 (median effective dose, biofilm inhibition) [3]: 4.2 ± 2.4 µM

CC[C@H](C)[C@H](NC(=O)[C@H](CCCCN)NC(=O)[C@H](CCCCN)NC(=O)[C@H](CC(C)C)NC(=O)[C@@H](NC(=O)[C@H](CCCNC(=N)N)NC(=O)[C@@H](NC(=O)[C@H](CCCNC(=N)N)NC(=O)[C@@H](NC(=O)[C@H](CCCNC(=N)N)NC(=O)[C@H](Cc1ccccc1)NC(=O)[C@H](CC(C)C)NC(=O)[C@H](CCCNC(=N)N)NC(=O)[C@H](CCCNC(=N)N)NC(=O)[C@H](Cc1ccccc1)NC(=O)[C@@H](N)CCCNC(=N)N)[C@@H](C)CC)C(C)C)C(C)C)C(N)=O [R-FV7-I16] (H-RFRRLFRIRVRVLKKI-NH2; N-terminus assumed)
Biofilm formation Level (antibiofilm activity) ([1]; 50 µM): High (key: High: high antibiofilm activity (ratio of biofilm formation from 0.01 to 0.2); Moderate: moderate activity (ratio from 0.29 to 0.47); Low: low activity (ratio from 0.72 to 0.77))
Biofilm formation Ratio (treatment/NTC) ([1]; 50 µM): 0.10 ± 0.01
Planktonic cells Ratio (treatment/NTC) ([1]; 50 µM): 1.70 ± 0.12
Bactericidal activity: Reduction in viability (Log N0/N) ([2]; 50 µM): 0.39 ± 0.01 Log N0/N
ED50 (median effective dose, biofilm inhibition) [3]: 6.3 ± 3.7 µM
Bimax (maximum biofilm inhibition) [3]: 90.6%
Hemolysis (horse erythrocytes; 150 µM): 6.3 ± 0.3%
Hemolysis (horse erythrocytes; 250 µM): 8.0 ± 1.3%
Hemolysis (horse erythrocytes; 375 µM): 9.7 ± 0.6%
Described activity: Antibacterial (Gram-negative bacteria [10]): Ec, Pa, Se
Described activity: Antibiofilm (Gram-negative bacteria [11]): Ec, Pa

BP178
reduction in viability [12]: approximately 3.6 log
